# Experimental data as given in patent publication EP1056700B1, “MEDICINAL USES OF PHENYLALKANOLS AND DERIVATES” (ZingoTX Pty Ltd, priority 1997, dated 1999).
# Entries after “also recorded” stand apart in the source; their conditions may differ.
# Legend:
# [1] = target: T1, SR Ca^2+-ATPase (Canis lupus familiaris, UniProt O46674); assay: Sarcoplasmic reticulum Ca^2+-ATPase assay; assay type: biochemical, dog; conditions: for SR Ca^2+-ATPase Activity: 0 µM = 100, dog cardiac SR; for SR Ca^2+-ATPase ↑ increase or stimulation: @ 25 µM; for IC50: read-out: SR Ca^2+-ATPase IC50 = conc. for 50% inhibition
# T1 construct: Effect of gingerols and their derivatives on the Ca^2+-ATPase activity of dog cardiac SR; from tissue; host or cells: dog heart (cardiac sarcoplasmic reticulum)
# Method in brief: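 Dog cardiac SR Ca^2+-ATPase activity was measured with 20 mM ATP solution over 30 min at 37°C. Released inorganic phosphate was developed colorimetrically, read at 655 nm and quantified against a Pi standard curve, with controls lacking ATP or calcium. Compounds from 10 mM DMSO stocks were tested in duplicate at ≤2.5% final DMSO.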
# [2] = tested on: guinea pig atria; assay: Organ bath assay on isolated guinea pig atria (rate and force of contraction)
# Method in brief: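 Test substances (DMSO, final 2.5 %) applied up to a maximum of 50 µM. Preparation: isolated atria of young (3-4 wk) male guinea pigs under 1 g resting tension in carbogen-oxygenated Krebs-Henseleit, baseline stable 20 min. Read-outs: beating rate and contractile force.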
# [3] = tested on: right atrium-vagus rat; assay: Cardiovascular and neuro-effector junction activities: right atrium-vagus, rat; conditions: result in words with concentration
# Source text: (§1) The cardiotonic action of 1-(4-hydroxy-3-methoxyphenyl)dodecan-3-ol [3.93] was confirmed from independent studies, carried out at our request as part of our agreement with Johnson & Johnson Research Ltd (J&J), by Prof. James Angus from the University of Melbourne. […] A tachycardial effect of the substance on guinea pig atria was, however, observed at significant rate, 50-60% of isoprenaline Emax and the response was not α- or β-adrenoceptor mediated. […] Cardiovascular and neuro-effector junction activities of gingerol analogues
# [4] = tested on: vas deferens rat; assay: Cardiovascular and neuro-effector junction activities: vas deferens, rat
# Source text: as §1
# [5] = tested on: right atrium-vagus guinea pig; assay: Cardiovascular and neuro-effector junction activities: right atrium-vagus, guinea pig; conditions: result in words with concentration
# Source text: as §1
# [6] = tested on: rat mesenteric artery; assay: Vasodilation on rat mesenteric small arteries
# Source text: Small arteries (200-300 µm in diameter) isolated from rat mesentery were precontracted with endothelin prior to addition of the test substances and tested for relaxation.
# [7] = tested on: Platelet rich plasma; assay: Platelet aggregation: [^3H]-serotonin release from platelet rich plasma, arachidonic acid initiated; assay type: cell-based; conditions: Homo sapiens, activation by EC50 concentration of arachidonic acid
# Method: Blood was collected from healthy volunteers who had taken no medication in the previous two weeks. The anticoagulant used was 3.8 % trisodium citrate. Platelet rich plasma was prepared and incubated with [^3H]-serotonin. This was followed by addition of gingerol analogues. Platelet activation was initiated using the EC50 concentration for arachidonic acid. The percentage of [^3H]-serotonin release was measured using a liquid scintillation counter. Then, dose-response curves were established and IC50 values were obtained.
# [8] = tested on: DRG neuronal cells; assay: Peak [Ca^2+]i transients in cultured dorsal root ganglion neurons (Fura-2); assay type: cell-based, rat; conditions: for Number of capsaicin-sensitive cells responding / Peak [Ca^2+]i (Average ±SD): 2 mM Ca^2+
# Method in brief: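 Neonatal or adult Sprague-Dawley rat DRG neurons, Percoll-enriched and NGF-cultured, were loaded with 5 µM Fura-2 AM and imaged by 340/380 nm ratio at 20–23 °C in buffer with 2 mM Ca²⁺, pH 7.4. Compounds at 10 µM were perfused for 1 min, then washed out for 4 min. Viability was confirmed with 10 µM capsaicin and 50 mM KCl.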
# [9] = result in words, guinea pig atria
# T1 sequence (O46674 whole entry): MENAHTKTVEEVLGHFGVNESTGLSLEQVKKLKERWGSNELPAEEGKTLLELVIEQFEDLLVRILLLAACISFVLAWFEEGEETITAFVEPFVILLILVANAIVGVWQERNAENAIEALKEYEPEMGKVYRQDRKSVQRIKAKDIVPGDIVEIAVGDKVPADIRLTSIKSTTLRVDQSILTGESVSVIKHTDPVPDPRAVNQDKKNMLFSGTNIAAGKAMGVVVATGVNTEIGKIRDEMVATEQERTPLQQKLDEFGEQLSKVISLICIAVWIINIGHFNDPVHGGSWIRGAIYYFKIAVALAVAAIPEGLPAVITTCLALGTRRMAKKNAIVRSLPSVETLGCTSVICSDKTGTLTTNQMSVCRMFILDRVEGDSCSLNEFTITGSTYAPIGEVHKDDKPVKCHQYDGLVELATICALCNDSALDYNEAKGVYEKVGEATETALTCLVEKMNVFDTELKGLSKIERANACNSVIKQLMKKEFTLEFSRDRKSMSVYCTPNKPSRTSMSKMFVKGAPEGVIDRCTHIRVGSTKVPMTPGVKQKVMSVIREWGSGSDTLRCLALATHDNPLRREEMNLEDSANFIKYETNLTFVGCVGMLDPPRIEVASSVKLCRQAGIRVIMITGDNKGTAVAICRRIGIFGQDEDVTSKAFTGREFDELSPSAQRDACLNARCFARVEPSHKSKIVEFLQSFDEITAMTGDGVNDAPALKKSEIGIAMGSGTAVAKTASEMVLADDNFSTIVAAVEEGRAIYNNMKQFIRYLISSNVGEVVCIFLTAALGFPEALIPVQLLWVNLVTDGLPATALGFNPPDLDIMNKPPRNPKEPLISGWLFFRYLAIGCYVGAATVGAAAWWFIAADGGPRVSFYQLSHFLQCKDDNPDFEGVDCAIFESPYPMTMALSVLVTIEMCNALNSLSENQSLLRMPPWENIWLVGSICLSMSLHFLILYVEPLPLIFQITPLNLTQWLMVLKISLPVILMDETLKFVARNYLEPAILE
structure (smiles),measurement,setting,value
CCCCCCCCCC(O)CCc1ccc(O)c(OC)c1 (stereo not shown) [1-(4-hydroxy-3-methoxyphenyl)dodecan-3-ol],SR Ca^2+-ATPase Activity,[1]; 5 µM,102
same,SR Ca^2+-ATPase Activity,[1]; 10 µM,108
same,SR Ca^2+-ATPase Activity,[1]; 25 µM,140
same,SR Ca^2+-ATPase Activity,[1]; 50 µM,101
same,SR Ca^2+-ATPase Activity,[1]; 100 µM,98
same,SR Ca^2+-ATPase Activity,[1]; 200 µM,16
same,SR Ca^2+-ATPase ↑ increase or stimulation,[1],↑40% @ 25
same,IC50,[1],50 to 100 µM
same,FORCE OF CONTRACT^n ↑ increase,"[2]; @ 10 (µM), guinea pig atria",↑180% @ 10
same,HEART RATE ↑ increase,"[2]; @ 10 (µM), guinea pig atria",↑50% @ 10
same,increase on driven guinea pig left atria,"[2]; at 1 µM, followed by arrhythmia",50%
same,potency of one enantiomer versus the other in increasing the force of contraction,[2]; guinea pig atria,100 fold
same,arrhythmia,"[2]; guinea pig atria, after addition of a dose",followed by arrhythmia
same,right atrium-vagus rat,[3],dramatic enhancement n=1 10^-6 - 10^-5 M
same,block of ATP or α1-receptors in vas deferens,[4],Neither blocked
same,vas deferens rat ↓,[4]; 10^-5 M (vehicle?),↓30% 10^-5 M (vehicle?)
same,right atrium-vagus guinea pig,[5],no enhancement of vagal slowing 10^-7 - 10^-5 M
same,potency (EC50) for relaxation of the mesenteric artery versus inotropic effect in guinea pig atrium,[6],100 fold
same,EC50,"[6]; Rattus norvegicus, relaxation of small arteries (200-300 µm) precontracted with endothelin",0.1 µM
same,relaxation of rat mesenteric artery,[6]; result in words,very potent; also recorded: both enantiomers showed similar potency
same,IC50,[7],58 ± 1.9 µM
same,Number of capsaicin-sensitive cells responding,"[8]; high responses, 10 µM",5
same,Peak [Ca^2+]i (Average ±SD),"[8]; high responses, 10 µM",661 ± 376 (high responses) nM
same,evoked [Ca^2+]i transients,[8]; in Ca^2+-free medium or on application of ruthenium red (1 µM),abolished or greatly diminished
same,Number of capsaicin-sensitive cells responding,"[8]; low responses, 10 µM",10
same,Peak [Ca^2+]i (Average ±SD),"[8]; low responses, 10 µM",187 ± 66 (low responses) nM
same,[Ca^2+]i in capsaicin-sensitive DRG cells,[8]; result in words,increased intracellular calcium
CCCCCCCC(O)CC(=O)c1ccc(O)c(OC)c1 (stereo not shown) [3-hydroxy-1-(4-hydroxy-3-methoxyphenyl)decan-1-one],SR Ca^2+-ATPase Activity,[1]; 1 µM,104
same,SR Ca^2+-ATPase Activity,[1]; 5 µM,152
same,SR Ca^2+-ATPase Activity,[1]; 10 µM,174
same,SR Ca^2+-ATPase Activity,[1]; 25 µM,195
same,SR Ca^2+-ATPase Activity,[1]; 50 µM,180
same,SR Ca^2+-ATPase Activity,[1]; 100 µM,222
same,SR Ca^2+-ATPase ↑ increase or stimulation,[1]; listed as 3-hydroxy-1-(4-hydroxy-3-methoxyphenyl) decan-1-one (3.92),↑95% @ 25
same,SR Ca^2+-ATPase ↑ increase or stimulation,[1]; listed as 3.92,95%
same,stimulatory activity towards dog heart SR Ca^2+-ATPase,[1]; at 3 µM,200%
same,IC50,[1],~50 µM
same,FORCE OF CONTRACT^n ↓ decrease,"[2]; @ 10 (µM), guinea pig atria",↓11% @ 10
same,HEART RATE ↓ decrease,"[2]; @ 10 (µM), guinea pig atria",↓5% @ 10
same,FORCE OF CONTRACT^n ↓ decrease,"[2]; @ 30 (µM), guinea pig atria",↓13% @ 30
same,increase on driven guinea pig left atria,[2]; at 10 µM,50%
same,FORCE OF CONTRACT^n,[2]; [9],negative inotropic activity
same,HEART RATE,[2]; [9],negative chronotropic activity
same,right atrium-vagus rat,[3],some enhanced slowing 10^-6 - 10^-5 M
same,block of ATP or α1-receptors in vas deferens,[4],Neither blocked
same,vas deferens rat,[4]; result in words with concentration,no effect 10^-4 M
same,right atrium-vagus guinea pig,[5],weak? enhanced slowing 10^-7 - 10^-6 M
same,Number of capsaicin-sensitive cells responding,[8]; 10 µM applied for 1 min,0 out of 5
same,Peak [Ca^2+]i (Average ±SD),[8]; 10 µM applied for 1 min,0 nM
